In one assay the test system is NL4(I84V). In words: Viral isolate resistance assay per Markowitz et al., NL4(I84V). The format is cell-based, HIV-1. The conditions noted are these: Human immunodeficiency virus 1, Table 7. From the text: (§1) RF represents the HIV-1 strain HIV-LRF and RFR represents a mixture of resistant strains obtained by selection of RF against the compound of Example 1. […] RFR2 represents a mixture of resistant strains obtained by cloning RFR by three rounds of growth at limiting dilution. […] RFRR represents a mixture of resistant strains obtained by selection of RF against the compounds of Examples 1 and 2 and then cloning by three rounds of growth at limiting dilution. […] SF162 represents the HIV-1 strain SF-162 and SF162R represents a mixture of resistant strains obtained by selection of SF162 against the compound of Example 1. […] 89-959 represents the HIV-1 strain 89-959 and 89-959R represents a mixture of resistant strains obtained by selection of 89-959 against the compound of Example 2. […] NL4 represents the HIV-1 strain HIV-1NL4-3. NL4(G48V) represents a strain having a synthetically generated site-directed mutation in the protease from glycine to valine at amino acid position number 48. NL4(I84V) represents a strain having a synthetically generated site-directed mutation in the protease from isoleucine to valine at amino acid position number 84. NL4(R8Q,M46I) represents a strain having synthetically generated site-directed mutations in the protease from arginine to glutamine at amino acid position number 8 and methionine to isoleucine at amino acid position number 46.

The test system of another assay is HIV-1NL4-3. Description: microbe, parasite or virus in culture. The format is cell-based. The conditions noted are these: for EC50: Table 8, read-out: Virus Isolate (EC50 nM) NL4.
Description: as §1

For a further assay, the system named is NL4(538/P24-AG). Description: Viral isolate resistance assay per Markowitz et al., NL4(538/P24-AG). The conditions noted are these: Human immunodeficiency virus 1; Table 10; NL4(P22-538) selected against Example 12, 24 passages. The format is cell-based, HIV-1. An excerpt:
RF represents the HIV-1 strain HIV-LRF and RFR represents a mixture of resistant strains obtained by selection of RF against the compound of Example 1. RFR comprises a mixture of viral strains having protease genotypes of G48V (14/40 clones); G48V, V82A (18/40 clones); G48V, L90S (2/40 clones); G48V, 154T, V82A (1/40 clones); G48M (1/40 clones); G48V, Q61H (1/40 clones); V13I, G48V (1/40 clones); G48V, F53L, V82A (1/40 clones); and G48V, V82A, C95Y (1/40 clones). RFR2 represents a mixture of resistant strains obtained by cloning RFR by three rounds of growth at limiting dilution. RFR2 comprises a mixture of viral strains having protease genotypes of G48V, V82A (13/15 clones); G17E, G48V, V82A (1/15 clones); and G48V, V82A, N37D, N88D (1/15 clones). RFRR represents a mixture of resistant strains obtained by selection of RF against the compounds of Examples 1 and 2 and then cloning by three rounds of growth at limiting dilution. RFRR comprises a mixture of viral strains having protease genotypes of G48V, 154T, L63P, V82A (7/9 clones); G48V, 154T, L63P, V82A, N88S (1/9 clones); and G48V, 154T, L63P, G73M, V82A (1/9 clones). SF162 represents the HIV-1 strain SF-162 and SF162R represents a mixture of resistant strains obtained by selection of SF162 against the compound of Example 1. SF162R comprises a mixture of viral strains having protease genotypes of M461, F53L, L63P, A71V, N88D (2/3 clones); and M46I, F53L, L63P, A71V, N88D, Q92R (1/3 clones). 89-959 represents the HIV-1 strain 89-959 and 89-959R represents a mixture of resistant strains obtained by selection of 89-959 against the compound of Example 2. 89-959R comprises a mixture of viral strains having protease genotypes of N88S (4/5 clones); and D25N, T26A, D30N, D37N, R41K, G73D, R87K, N88S (1/4 clones). NL4 represents the HIV-1 strain HIV-1NL4-3. NL4(G48V) represents a strain having a synthetically generated site-directed mutation in the protease from glycine to valine at amino acid position number 48. NL4(I84V) represents a strain having a synthetically generated site-directed mutation in the protease from isoleucine to valine at amino acid position number 84. NL4(R8Q,M46I) represents a strain having synthetically generated site-directed mutations in the protease from arginine to glutamine at amino acid position number 8 and methionine to isoleucine at amino acid position number 46. NL4(P22-538) represents a mixture of resistant strains obtained by selection of HIV-1NL4-3 against the compound of Example 10 after 22 passages comprising protease genotypes M46I, L63P, A71V, V82F, I84V (4/10); M46I, L63P, V82F, I84V (3/10); and M46I, A71V, V82F, I84V (3/10). NL4(P37-538) represents resistant strains obtained by selection of HIV-1NL4-3 against the compound of Example 10 after 37 passages comprising protease genotype M46I, L63P, A71V, 184A. NL4(538/524) represents resistant strains obtained by selection of NL4(P22-538) against the compound of Example 5 after 24 passages comprising protease genotype M46I, L63P, A71V, 184A. NL4(538/P7-AG) represents a mixture of resistant strains obtained by selection of NL4(P22-538) against the compound of Example 12 after 7 passages comprising protease genotypes M46I, L63P, A71V, 184A; and V321, V82I. NL4(538/P24-AG) represents resistant strains obtained by selection of NL4(P22-538) against the compound of Example 12 after 24 passages comprising protease genotype M46I, L63P, A71V, 184A. […]

For a further assay, the system named is NLA(P19-003). Description: Viral isolate resistance assay per Markowitz et al., NLA(P19-003). The format is cell-based, HIV-1. As to conditions: Human immunodeficiency virus 1, read-out: Virus Isolate (EC50 nM) NLA(P19-003). An excerpt: (§2) RF represents the HIV-1 strain HIV-LRF and RFR represents a mixture of resistant strains obtained by selection of RF against the compound of Example 1. RFR comprises a mixture of viral strains having protease genotypes of G48V (14/40 clones); G48V, V82A (18/40 clones); G48V, L90S (2/40 clones); G48V, 154T, V82A (1/40 clones); G48M (1/40 clones); G48V, Q61H (1/40 clones); V13I, G48V (1/40 clones); G48V, F53L, V82A (1/40 clones); and G48V, V82A, C95Y (1/40 clones). RFR2 represents a mixture of resistant strains obtained by cloning RFR by three rounds of growth at limiting dilution. RFR2 comprises a mixture of viral strains having protease genotypes of G48V, V82A (13/15 clones); G17E, G48V, V82A (1/15 clones); and G48V, V82A, N37D, N88D (1/15 clones). RFRR represents a mixture of resistant strains obtained by selection of RF against the compounds of Examples 1 and 2 and then cloning by three rounds of growth at limiting dilution. RFRR comprises a mixture of viral strains having protease genotypes of G48V, 154T, L63P, V82A (7/9 clones); G48V, 154T, L63P, V82A, N88S (1/9 clones); and G48V, 154T, L63P, G73M, V82A (1/9 clones). SF162 represents the HIV-1 strain SF-162 and SF162R represents a mixture of resistant strains obtained by selection of SF162 against the compound of Example 1. SF162R comprises a mixture of viral strains having protease genotypes of M461, F53L, L63P, A71V, N88D (2/3 clones); and M46I, F53L, L63P, A71V, N88D, Q92R (1/3 clones). 89-959 represents the HIV-1 strain 89-959 and 89-959R represents a mixture of resistant strains obtained by selection of 89-959 against the compound of Example 2. 89-959R comprises a mixture of viral strains having protease genotypes of N88S (4/5 clones); and D25N, T26A, D30N, D37N, R41K, G73D, R87K, N88S (1/4 clones). NL4 represents the HIV-1 strain HIV-1NL4-3. NL4(G48V) represents a strain having a synthetically generated site-directed mutation in the protease from glycine to valine at amino acid position number 48. […]

Another assay has as its system NL4(P34-003). Description: Viral isolate resistance assay per Markowitz et al., NL4(P34-003). As to conditions: Human immunodeficiency virus 1; Table 11; selected against Example 9, 34 passages. The format is cell-based, HIV-1.
Description: as §2

The test system of the next assay is NL4(R8Q,M46I). Description: Viral isolate resistance assay per Markowitz et al., NL4(R8Q,M46I). The format is cell-based, HIV-1. The conditions noted are these: Human immunodeficiency virus 1, read-out: Virus Isolate (EC50 nM) NL4(R8O, M46I).
Description: as §2

Setting [1] is: Human immunodeficiency virus 1, NL4.

Where two headings read alike, the source gives them in different places.

Take `CC(C)(C)NC(=O)[C@@H]1CC2CCCC[C@@H]2CN1C[C@@H](O)[C@H](Cc1ccccc1)NC(=O)[C@H](CC(N)=O)NC(=O)c1ccc2ccccc2n1` (stereo in doubt) [Example 6, N-tert-Butyl decahydro-2-[2(R)-hydroxy-4-phenyl-3(S)-[[N-(2-quinolylcarbonyl)-L-asparaginyl]amino]butyl]-(4aR,8aS)-isoquinoline-3(S)-carboxamide]: the EC90 with NL4(I84V) was determined as 90 nM; in the assay on HIV-1NL4-3 (Human immunodeficiency virus 1, Table 7, EC90, NL4, read-out: Virus Isolate (EC90 nM) NL4) it was 30 nM. In addition, the values for the EC50 in the assay with HIV-1NL4-3 (setting [1]) and with NL4(538/P24-AG) were 30 nM and 2400 nM, respectively.
On to `CC(C)(C)NC(=O)[C@@H]1CN(Cc2cccnc2)CCN1C[C@@H](O)C[C@@H](Cc1ccccc1)C(=O)N[C@H]1c2ccccc2C[C@H]1O` [Example 5, N-(2(R)-Hydroxy-1(S)-indanyl)-2(R)-phenylmethyl-4(S)-hydroxy-5-(1-(4-(3-pyridylmethyl)-2(S)-N′-(t-butylcarboxamido)-piperazinyl))-pentaneamide], for which the EC50 is 240 nM in the assay with NLA(P19-003); 400 nM with NL4(P34-003); 240 nM in the assay with NL4(R8Q,M46I); 80 nM with HIV-1NL4-3 (setting [1]); 6400 nM in the assay with NL4(538/P24-AG). In addition, the EC90 in the assay with NL4(I84V) was determined as 640 nM; in the assay with HIV-1NL4-3 (Human immunodeficiency virus 1, read-out: Virus Isolate (EC90 nM) NL4), 80 nM.

By EC90 is commonly meant the concentration at which the effect reaches the 90% level. One may read the EC50 as the concentration that produces a half-maximal response.

The values above are taken from US20030207813A1, “Retroviral protease inhibitor combinations” (priority 1995, published 2003).
